Consider 39 molecules from the RepoRT retention time repository.

The series can be described thus: HILIC, Waters ACQUITY UPLC BEH HILIC, 150 × 2.1 mm, 1.7 µm, 40 °C, 0.6 mL/min, estimated dead time 0.55 min; A: water + 0.1% formic acid + 20 mM ammonium formate, pH 3.5; B: acetonitrile + 0.1% formic acid, pH 3; gradient (min/%B) 0/95 0.1/95 4.6/80 5.5/50 7.0/50 7.1/95 7.2/95 7.3/95 7.4/95 7.5/95 7.6/95 7.7/95 7.8/95 12.50/95 12.65/95. To be noted: stereoisomer not certain.
`C[N+](C)(C)CCCC(=O)[O-]` [4-Trimethylammoniobutanoic acid (deoxycarnitine)]: the LC retention time is 4.91 min. Regarding `CN1CCCCC1C(=O)O` (centres undefined), the LC retention time was 4.59 min. On to `C[N+](C)(C)CCOP(=O)([O-])OCC(O)CO` (centres undefined) [a-Glycerophosphocholine], for which the LC retention time was 6.02 min.

With `Cn1c(=O)[nH]c2ncn(C)c2c1=O` [Paraxanthine], the LC retention time is 0.948 min. The value for `CC(=O)NCCCNCCCC(=O)O` [N-Acetylisoputreanine] was 4.93 min; that for `C[N+](C)(C)CC(CC(=O)[O-])OC(=O)CCCC(=O)O` (centres undefined) [Glutarylcarnitine CAR(5:0-DC)] was 5.1 min. With `O=c1[nH]cc(C2OC(CO)C(O)C2O)c(=O)[nH]1` (centres undefined) [Pseudouridine], the LC retention time is 1.25 min. The value for `NC(=O)c1cccnc1` [Niacinamide] was 1.07 min; that for `OCC1OC(OC2(CO)OC(CO)C(O)C2O)C(O)C(O)C1O` (centres undefined) [Sucrose] was 2.27 min.

For the molecule `NCCc1c[nH]c2ccccc12` [Tryptamine], the LC retention time is 2.79 min. For `CCCC(=O)OC(CC(=O)[O-])C[N+](C)(C)C` (centres undefined) [Butyrylcarnitine], the LC retention time is 4.69 min. `O=c1[nH]cnc2nc[nH]c12` [Hypoxanthine]: the LC retention time is 1.59 min. The value for `NC(CCCCn1c(C=O)ccc1CO)C(=O)O` (centres undefined) [Pyralline] was 4.28 min; that for `C[N+](C)(C)CCO` [Choline] was 3.97 min. In the case of `Nc1nc2nc[nH]c2c(=O)[nH]1` [Guanine], the LC retention time is 2.17 min.

For `O=C(O)CCc1cnc[nH]1` [Imidazolepropionic acid], the LC retention time was 3.76 min. Regarding `C[N+](C)(C)CC(CC(=O)[O-])OC(=O)c1ccccc1` (centres undefined) [Benzoylcarnitine], the LC retention time is 4.45 min. For the molecule `C[N+](C)(C)CC(O)(CC(=O)[O-])C(=O)Cc1ccccc1` (centres undefined) [Phenylacetyl carnitine], the LC retention time is 4.47 min. `CN(C)CC(=O)O` [N,N-Dimethylglycine]: the LC retention time is 4.64 min. For `NCCc1ccccc1` [Phenylethylamine], the LC retention time is 2.91 min. The value for `C=CC1CN2CCC1CC2C(O)c1ccnc2ccc(OC)cc12` (centres undefined) [Quinine] was 3.03 min; that for `Cn1cnc2c(ncn2C2OC(CO)C(O)C2O)c1=N` (centres undefined) [1-Methyladenosine] was 4.1 min. Take `NC(=O)c1ccc[n+]([O-])c1` [Nicotinamide N-oxide]: the LC retention time was 2.02 min. The value for `CC(CCC(=O)NCC(=O)O)C1CCC2C3CCC4CC(O)CCC4(C)C3CCC12C` (centres undefined) [Glycolithocholic acid] was 1.22 min. For the molecule `CC=C(C)C(=O)OC(CC(=O)[O-])C[N+](C)(C)C` (centres undefined) [Tiglylcarnitine CAR(5:1)], the LC retention time is 4.54 min. Take `C[N+](C)(C)[O-]` [Trimethylamine N-oxide]: the LC retention time was 4.18 min. On to `CN1C(=O)CCC1c1ccc[n+]([O-])c1` (centres undefined) [Cotinine N-oxide], for which the LC retention time was 2.87 min. Consider `CC(CCC(=O)NCC(=O)O)C1CCC2C3CCC4CC(O)CCC4(C)C3CC(O)C12C` (centres undefined) [Glycodeoxycholic acid], for which the LC retention time is 1.96 min. In the case of `NCCc1ccc(OS(=O)(=O)O)c(O)c1` [Dopamine-4-O-sulfate], the LC retention time is 1.07 min. The value for `CSCC1OC(n2cnc3c(N)ncnc32)C(O)C1O` (centres undefined) [5'-Methylthioadenosine] was 1.3 min; that for `C[N+]1(C)CCCC1C(=O)[O-]` (centres undefined) [Proline Betaine] was 4.91 min. The value for `Cn1cncc1CC(N)C(=O)O` (centres undefined) [3-Methylhistidine] was 6.09 min. Turning to `CC(=O)NCCCNCCCCNCCCNC(C)=O` [N1,N12-Diacetylspermine], the LC retention time was 6.1 min. The value for `CCCCCCCC(=O)OC(CC(=O)[O-])C[N+](C)(C)C` (centres undefined) [Octanoylcarnitine CAR(C8:0)] was 4.13 min. The value for `Cn1c[n+](C2OC(CO)C(O)C2O)c2nc(N)[nH]c(=O)c21` (centres undefined) [7-Methylguanosine] was 1.97 min; that for `Cn1cnc(CC(N)C(=O)O)c1` (centres undefined) [1-Methylhistidine] was 6.35 min; that for `NC(N)=NCCCC(N)C(=O)O` (centres undefined) [Arginine] was 5.92 min. As for `NC(N)=NCCCC(=O)O` [4-Guanidinobutanoic acid], the LC retention time was 3.84 min. As to `Cn1ccc(=O)c(C(N)=O)c1` [N1-methyl-4-pyridone-3-carboxamide], the LC retention time is 1.5 min.
